Experimental data: patent publication US10646488B2 (Araxes Pharma LLC, priority 2016, dated 2020)
Also: test concentration or dose not given here.

What follows are molecules tested against T1, KRAS G12C 1-169, his-tagged protein, GDP-loaded (Homo sapiens, UniProt P01116, G12C) (assay: Covalent binding (% modification) to KRAS G12C by mass spectrometry). Details: % modification at 10 min (footnote †).
T1 construct: KRAS G12C 1-169, his-tagged protein, GDP-loaded
CC#CC(=O)N1C[C@H](C)N(c2nc(N3CC(N(C)C)C3)nc3c(F)c(-c4c(O)cccc4F)c(Cl)cc23)C[C@H]1C [Compound 114, 1-((2R,5S)-4-(6-chloro-2-(3-(dimethylamino)azetidin-1-yl)-8-fluoro-7-(2-fluoro-6-hydroxyphenyl)quinazolin-4-yl)-2,5-dimethyl-piperazin-1-yl) but-2-yn-1-one] was tested, and the Binding % was “+ (+ indicates binding activity greater than 0% and up to 50%)”.
For C[C@@H]1CN(c2nc(N3CC(N(C)C)C3)nc3c(F)c(-c4c(O)cccc4F)c(Cl)cc23)[C@@H](C)CN1C(=O)C1CO1 (stereo partly drawn) [Compound 115, ((2R,5S)-4-(6-chloro-2-(3-(dimethylamino)azetidin-1-yl)-8-fluoro-7-(2-fluoro-6-hydroxyphenyl)quinazolin-4-yl)-2,5-dimethyl-piperazin-1-yl) (oxiran-2-yl) methanone], the Binding % was “+ (+ indicates binding activity greater than 0% and up to 50%)”.

Same assay, conditions: covalent binding to KRAS G12C after a three minute incubation period
With C=CC(=O)N1C[C@H](C)N(c2nc(N3CC(N(C)C4CC4)C3)nc3c(F)c(-c4c(O)cccc4F)c(Cl)cc23)C[C@H]1C [Compound 106, 1-((2R,5S)-4-(6-chloro-2-(3-(cyclopropyl (methyl)amino)azetidin-1-yl)-8-fluoro-7-(2-fluoro-6-hydroxyphenyl)quinazolin-4-yl)-2,5-dimethyl-piperazin-1-yl) prop-2-en-1-one] the Binding % was “++ (++ indicates binding activity from 50 to 90%)”.
For C=CC(=O)N1C[C@H](C)N(c2nc(N3CC(N(C)CC(F)F)C3)nc3c(F)c(-c4c(O)cccc4F)c(Cl)cc23)C[C@H]1C [Compound 107, 1-((2R,5S)-4-(6-chloro-2-(3-((2,2-difluoroethyl) (methyl)amino)azetidin-1-yl)-8-fluoro-7-(2-fluoro-6-hydroxyphenyl)quinazolin-4-yl)-2,5-dimethyl-piperazin-1-yl) prop-2-en-1-one], the Binding % was “++ (++ indicates binding activity from 50 to 90%)”.
With C=CC(=O)N1C[C@H](C)N(c2nc(N3CC(N(C)C4CCC4)C3)nc3c(F)c(-c4c(O)cccc4F)c(Cl)cc23)C[C@H]1C [Compound 110, 1-((2R,5S)-4-(6-chloro-2-(3-(cyclobutyl (methyl)amino)azetidin-1-yl)-8-fluoro-7-(2-fluoro-6-hydroxyphenyl)quinazolin-4-yl)-2,5-dimethyl-piperazin-1-yl) prop-2-en-1-one] the Binding % was “++ (++ indicates binding activity from 50 to 90%)”.
For C[C@@H]1CN(c2nc(N3CC(N(C)C)C3)nc3c(F)c(-c4c(O)cccc4F)c(Cl)cc23)[C@@H](C)CN1C(=O)/C(C#N)=C/c1ccccn1 [Compound 111, (E)-2-((2R,5S)-4-(6-chloro-2-(3-(dimethylamino)azetidin-1-yl)-8-fluoro-7-(2-fluoro-6-hydroxyphenyl)quinazolin-4-yl)-2,5-dimethyl-piperazine-1-carbonyl)-3-(pyridin-2-yl) acrylonitrile], the Binding % was “+ (+ indicates binding activity greater than 0% and up to 50%)”.
With C=CC(=O)N1C[C@H](C)N(c2nc(OCCN3CC(F)(F)C3)nc3c(F)c(-c4c(C)ccc5cn[nH]c45)c(Cl)cc23)C[C@H]1C [Compound 112, 1-((2R,5S)-4-(6-chloro-2-(2-(3,3-difluoroazetidin-1-yl)ethoxy)-8-fluoro-7-(6-methyl-1H-indazol-7-yl)quinazolin-4-yl)-2,5-dimethyl-piperazin-1-yl) prop-2-en-1-one] the Binding % was “++ (++ indicates binding activity from 50 to 90%)”.
For C[C@@H]1CN(c2nc(N3CC(N(C)C)C3)nc3c(F)c(-c4c(O)cccc4F)c(Cl)cc23)[C@@H](C)CN1C(=O)C#CCO [Compound 113, 1-((2R,5S)-4-(6-chloro-2-(3-(dimethylamino)azetidin-1-yl)-8-fluoro-7-(2-fluoro-6-hydroxyphenyl)quinazolin-4-yl)-2,5-dimethyl-piperazin-1-yl)-4-hydroxybut-2-yn-1-one], the Binding % was “+++ (+++ indicates binding activity greater than 90%)”.
With C=CC(=O)N1C[C@H](C)N(c2nc(N3CC(N(CC)C4CC4)C3)nc3c(F)c(-c4c(C)ccc5cn[nH]c45)c(Cl)cc23)C[C@H]1C [Compound 116, 1-((2R,5S)-4-(6-chloro-2-(3-(cyclopropyl (ethyl)amino)azetidin-1-yl)-8-fluoro-7-(6-methyl-1H-indazol-7-yl)quinazolin-4-yl)-2,5-dimethyl-piperazin-1-yl) prop-2-en-1-one] the Binding % was “++ (++ indicates binding activity from 50 to 90%)”.
With C=CC(=O)N1C[C@H](C)N(c2nc(N3CC(N(CC)CC)C3)nc3c(F)c(-c4c(C)ccc5cn[nH]c45)c(Cl)cc23)C[C@H]1C [Compound 117, 1-((2R,5S)-4-(6-chloro-2-(3-(diethylamino)azetidin-1-yl)-8-fluoro-7-(6-methyl-1H-indazol-7-yl)quinazolin-4-yl)-2,5-dimethyl-piperazin-1-yl) prop-2-en-1-one] the Binding % was “+ (+ indicates binding activity greater than 0% and up to 50%)”.
C=CC(=O)N1C[C@H](C)N(c2nc(N3CC(N(C)CC)C3)nc3c(F)c(-c4c(C)ccc5cn[nH]c45)c(Cl)cc23)C[C@H]1C [Compound 118, 1-((2R,5S)-4-(6-chloro-2-(3-(ethyl(methyl)amino)azetidin-1-yl)-8-fluoro-7-(6-methyl-1H-indazol-7-yl)quinazolin-4-yl)-2,5-dimethyl-piperazin-1-yl) prop-2-en-1-one] was tested, and the Binding % was “+ (+ indicates binding activity greater than 0% and up to 50%)”.
C=CC(=O)N1C[C@H](C)N(c2nc(N3CC(N(C)CC)C3)nc3c(F)c(-c4c(C)ccc5[nH]ncc45)c(Cl)cc23)C[C@H]1C [Compound 119, 1-((2R,5S)-4-(6-chloro-2-(3-(ethyl(methyl)amino)azetidin-1-yl)-8-fluoro-7-(5-methyl-1H-indazol-4-yl)quinazolin-4-yl)-2,5-dimethyl-piperazin-1-yl) prop-2-en-1-one] was tested, and the Binding % was “+ (+ indicates binding activity greater than 0% and up to 50%)”.
C=CC(=O)N1C[C@H](C)N(c2nc(N3CC(C)(N(C)C)C3)nc3c(F)c(-c4c(C)ccc5[nH]ncc45)c(Cl)cc23)C[C@H]1C [Compound 121, 1-((2R,5S)-4-(6-chloro-2-(3-(dimethylamino)-3-methylazetidin-1-yl)-8-fluoro-7-(5-methyl-1H-indazol-4-yl)quinazolin-4-yl)-2,5-dimethyl-piperazin-1-yl) prop-2-en-1-one] was tested, and the Binding % was “++ (++ indicates binding activity from 50 to 90%)”.
For C=CC(=O)N1C[C@H](C)N(c2nc(N3CC(N(C)C(C)C)C3)nc3c(F)c(-c4c(C)ccc5cn[nH]c45)c(Cl)cc23)C[C@H]1C [Compound 122, 1-((2R,5S)-4-(6-chloro-8-fluoro-2-(3-(isopropyl (methyl)amino)azetidin-1-yl)-7-(6-methyl-1H-indazol-7-yl)quinazolin-4-yl)-2,5-dimethyl-piperazin-1-yl) prop-2-en-1-one], the Binding % was “++ (++ indicates binding activity from 50 to 90%)”.
C=CC(=O)N1C[C@H](C)N(c2nc(N3CC(N(C)C(C)C)C3)nc3c(F)c(-c4c(C)ccc5[nH]ncc45)c(Cl)cc23)C[C@H]1C [Compound 123, 1-((2R,5S)-4-(6-chloro-8-fluoro-2-(3-(isopropyl (methyl)amino)azetidin-1-yl)-7-(5-methyl-1H-indazol-4-yl)quinazolin-4-yl)-2,5-dimethyl-piperazin-1-yl) prop-2-en-1-one] was tested, and the Binding % was “+ (+ indicates binding activity greater than 0% and up to 50%)”.
C=CC(=O)N1C[C@H](C)N(c2nc(N3CC(C)(N(C)C)C3)nc3c(F)c(-c4c(C)ccc5cn[nH]c45)c(Cl)cc23)C[C@H]1C [Compound 124, 1-((2R,5S)-4-(6-chloro-2-(3-(dimethylamino)-3-methylazetidin-1-yl)-8-fluoro-7-(6-methyl-1H-indazol-7-yl)quinazolin-4-yl)-2,5-dimethyl-piperazin-1-yl) prop-2-en-1-one] was tested, and the Binding % was “++ (++ indicates binding activity from 50 to 90%)”.
In the case of C=CC(=O)N1C[C@H](C)N(c2nc(N3CC(N(CC)C4CC4)C3)nc3c(F)c(-c4c(C)ccc5[nH]ncc45)c(Cl)cc23)C[C@H]1C [Compound 125, 1-((2R,5S)-4-(6-chloro-2-(3-(cyclopropyl (ethyl)amino)azetidin-1-yl)-8-fluoro-7-(5-methyl-1H-indazol-4-yl)quinazolin-4-yl)-2,5-dimethyl-piperazin-1-yl) prop-2-en-1-one], the Binding % is reported as “++ (++ indicates binding activity from 50 to 90%)”.
In the case of C=CC(=O)N1C[C@H](C)N(c2nc(N3CC(N(CC)CC)C3)nc3c(F)c(-c4c(O)cccc4F)c(Cl)cc23)C[C@H]1C [Compound 126, 1-((2R,5S)-4-(6-chloro-2-(3-(diethylamino)azetidin-1-yl)-8-fluoro-7-(2-fluoro-6-hydroxyphenyl)quinazolin-4-yl)-2,5-dimethyl-piperazin-1-yl) prop-2-en-1-one], the Binding % is reported as “+++ (+++ indicates binding activity greater than 90%)”.
With C=CC(=O)N1C[C@H](C)N(c2nc(N3CC(N(CC)CC)C3)nc3c(F)c(-c4c(C)ccc5cn[nH]c45)c(Cl)cc23)C[C@H]1C [Compound 129, 1-((2R,5S)-4-(6-chloro-2-(3-(diethylamino)azetidin-1-yl)-8-fluoro-7-(6-methyl-1H-indazol-7-yl)quinazolin-4-yl)-2,5-dimethyl-piperazin-1-yl) prop-2-en-1-one] the Binding % was “++ (++ indicates binding activity from 50 to 90%)”.
C=CC(=O)N1C[C@H](C)N(c2nc(N3CC(N(C)C)C3)nc3c(F)c(-c4ccccc4F)c(Cl)cc23)C[C@H]1C [Compound 132, 1-((2R,5S)-4-(6-chloro-2-(3-(dimethylamino)azetidin-1-yl)-8-fluoro-7-(2-fluorophenyl)quinazolin-4-yl)-2,5-dimethyl-piperazin-1-yl) prop-2-en-1-one] was tested, and the Binding % was “++ (++ indicates binding activity from 50 to 90%)”.
With C=CC(=O)N1C[C@H](C)N(c2nc(N3CC(N(C)C4CC4)C3)nc3c(F)c(-c4c(C)ccc5cn[nH]c45)c(Cl)cc23)C[C@H]1C [Compound 133, 1-((2R,5S)-4-(6-chloro-2-(3-(cyclopropyl (methyl)amino)azetidin-1-yl)-8-fluoro-7-(6-methyl-1H-indazol-7-yl)quinazolin-4-yl)-2,5-dimethyl-piperazin-1-yl) prop-2-en-1-one] the Binding % was “++ (++ indicates binding activity from 50 to 90%)”.
